Results: PMC7673538 (PLoS Biology, 2020)
Where “and” joins values, the source holds several entries; their conditions need not be identical. Equal entries are not always repeated. Where two headings read alike, the source gives them in different places.

Assays:
[1] = target: T1, human NET (Homo sapiens, UniProt P23975); format: cell-based; conditions: for NET, Mean (Figure 8B): Control = 100; for NET, Mean as % (Figure 8B): Control = 100%
T1 construct: expressed in transfected cells; host or cells: HEK293 (gift of Dr. Hoener, F. Hoffmann-La Roche)

[2] = system: CV-B3; assay: microbe, parasite or virus in culture; format: cell-based, coxsackievirus B3; conditions: Enterovirus B
[3] = target: T2, human SERT (Homo sapiens, UniProt P31645); format: cell-based
T2 construct: expressed in transfected cells; host or cells: HEK293 (gift of Dr. Hoener, F. Hoffmann-La Roche)

[4] = system: HeLa R19 cells
[5] = in vitro; conditions: monkey
[6] = system: CV-B3; assay: microbe, parasite or virus in culture; format: cell-based, coxsackievirus B3; conditions: for EC50: Enterovirus B
[7] = system: CV-A24v; assay: microbe, parasite or virus in culture; format: cell-based, coxsackievirus A24v
[8] = system: representative EVs and RVs; format: cell-based
[9] = system: EV-D68; assay: microbe, parasite or virus in culture; format: cell-based, enterovirus D68; conditions: for EC50: Enterovirus D

T2 sequence (P31645 whole entry): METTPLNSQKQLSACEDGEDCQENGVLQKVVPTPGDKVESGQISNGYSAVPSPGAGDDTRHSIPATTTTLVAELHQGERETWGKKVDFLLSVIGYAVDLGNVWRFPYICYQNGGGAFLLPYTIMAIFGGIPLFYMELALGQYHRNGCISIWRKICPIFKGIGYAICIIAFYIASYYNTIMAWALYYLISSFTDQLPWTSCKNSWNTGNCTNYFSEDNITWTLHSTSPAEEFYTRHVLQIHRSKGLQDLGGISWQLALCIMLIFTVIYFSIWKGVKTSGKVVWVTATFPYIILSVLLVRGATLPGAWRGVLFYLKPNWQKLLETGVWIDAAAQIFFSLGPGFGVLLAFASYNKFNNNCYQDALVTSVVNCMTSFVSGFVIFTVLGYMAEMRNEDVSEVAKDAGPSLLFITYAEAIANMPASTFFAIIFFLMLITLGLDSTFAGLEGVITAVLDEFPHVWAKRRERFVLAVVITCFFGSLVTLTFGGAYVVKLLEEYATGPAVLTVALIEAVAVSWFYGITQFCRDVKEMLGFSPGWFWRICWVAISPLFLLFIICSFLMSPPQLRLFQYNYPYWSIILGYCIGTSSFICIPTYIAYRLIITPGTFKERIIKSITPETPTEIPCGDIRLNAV
T1 sequence (P23975 whole entry): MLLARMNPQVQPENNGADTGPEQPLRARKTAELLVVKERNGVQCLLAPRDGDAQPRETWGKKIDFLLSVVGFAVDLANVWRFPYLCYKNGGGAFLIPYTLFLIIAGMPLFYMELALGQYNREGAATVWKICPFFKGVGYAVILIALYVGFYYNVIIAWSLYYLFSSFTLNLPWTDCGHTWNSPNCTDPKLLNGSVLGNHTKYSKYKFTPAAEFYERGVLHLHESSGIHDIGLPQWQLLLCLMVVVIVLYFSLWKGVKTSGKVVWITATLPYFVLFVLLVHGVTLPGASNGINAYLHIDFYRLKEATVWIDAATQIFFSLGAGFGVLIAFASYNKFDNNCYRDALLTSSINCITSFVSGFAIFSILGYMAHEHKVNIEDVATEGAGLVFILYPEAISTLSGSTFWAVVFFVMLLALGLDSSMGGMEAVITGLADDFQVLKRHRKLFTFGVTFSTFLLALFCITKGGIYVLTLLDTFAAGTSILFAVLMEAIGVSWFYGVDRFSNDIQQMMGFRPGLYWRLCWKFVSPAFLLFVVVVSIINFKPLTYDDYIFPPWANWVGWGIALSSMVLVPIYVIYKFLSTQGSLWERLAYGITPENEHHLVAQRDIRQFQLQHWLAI

Which “NET, Mean (Figure 8B)” value ([1]; 1µM) does the source give for `O=C(c1ccco1)N(Cc1ccc(C(F)(F)F)cc1)c1ccccc1` [Compound 19d, N-phenyl-N-(4-(trifluoromethyl)benzyl)furan-2-carboxamide] here?
Its value is 125.873.

What about the “NET, Mean as % (Figure 8B)” value ([1]; 1µM) of the same compound?
The value was 126%.

And the “NET, Mean (Figure 8B)” value ([1]; 100µM)?
Its value is 118.011.

What about the “NET, Mean as % (Figure 8B)” value ([1]; 100µM) of the same compound?
Its value is 118%.

And the “inhibition of NET function (in words)” value ([1]; HEK293 cells expressing human NET, 1 μM or 100 μM)?
Its value is “neither 12a, 19b, 19d, nor the combined compound 12b inhibited”.

What about the EC50 ([2]; CVB3, HAP1, read-out: EC50 Hap1 Average) of the same compound?
The EC50 was 0.75 µM.

What about the EC50 ([2]; CVB3, HAP1, read-out: Exp 1 EC50 Hap1) of the same compound?
Its EC50 is 0.69 µM.

What about the EC50 ([2]; CVB3, HAP1, read-out: Exp 2 EC50 Hap1) of the same compound?
Its EC50 is 0.8 µM.

And the “SERT, Mean (Figure 8B)” value ([3]; 1µM, Control = 100.00)?
The value was 104.62.

And the “SERT, Mean as % (Figure 8B)” value ([3]; 1µM, Control = 100%)?
The value was 105%.

What about the “SERT, Mean (Figure 8B)” value ([3]; 100µM) of the same compound?
Its value is 107.21.

What about the “SERT, Mean as % (Figure 8B)” value ([3]; 100µM) of the same compound?
Its value is 107%.

What about the “inhibition of SERT-mediated uptake (in words)” value ([3]; HEK293 cells expressing human SERT, 1 and 100 μM) of the same compound?
The value was “neither 12a, 19b, 19d, nor the combined compound 12b inhibited”.

And the “cytotoxicity (in words)” value [4]?
The value was “very minimal cytotoxicity”.

What about the CC50 ([5]; CC50) of the same compound?
Its CC50 is 92.6 ± 1.51 µM.

What about the CC50 ([5]; CC50 BGM Average) of the same compound?
Its CC50 is 92.6 µM.

And the CC50 ([5]; Exp 1 CC50 BGM)?
The CC50 was 91.1 µM.

What about the CC50 ([5]; Exp 2 CC50 BGM) of the same compound?
The CC50 was 94.1 µM.

What about the “effect of the substitution on antiviral activity against CV-B3 (in words)” value [6] of the same compound?
Its value is “only marginally affected antiviral activity”.

And the EC50 ([6]; CVB3, HeLa R19, […], read-out: EC50 Exp1)?
The EC50 was 7.98 µM.

What about the EC50 ([6]; CVB3, HeLa R19, read-out: CV-B3 EC50 Average) of the same compound?
Its EC50 is 0.79 µM.

What about the EC50 ([6]; CVB3, HeLa R19, read-out: CV-B3 Exp 1 EC50) of the same compound?
The EC50 was 0.73 µM.

And the EC50 ([6]; CVB3, HeLa R19, read-out: CV-B3 Exp2 EC50)?
Its EC50 is 0.85 µM.

What about the EC50 ([6]; CVB3, HeLa R19, read-out: EC50 Exp1) of the same compound?
Its EC50 is 1.04 µM.

What about the EC50 ([6]; CVB3, HeLa R19, read-out: EC50 HelaR19 Average) of the same compound?
Its EC50 is 0.77 µM.

And the EC50 ([6]; CVB3, HeLa R19, read-out: Exp 1 EC50 HelaR19)?
Its EC50 is 0.91 µM.

And the EC50 ([6]; CVB3, HeLa R19, read-out: Exp 2 EC50 HelaR19)?
Its EC50 is 0.63 µM.

What about the EC50 ([6]; CVB3 / genotype 2c, HeLa R19, read-out: EC50 CV-B3 WT) of the same compound?
Its EC50 is 1.26 ± 0.15 µM.

And the EC50 ([7]; Coxsackievirus, HeLa R19, read-out: EC50 Average)?
The EC50 was 18.6 µM.

What about the EC50 ([7]; Coxsackievirus, HeLa R19, read-out: EC50 CV-A24v strain 110386) of the same compound?
The EC50 was 15.7 ± 1.32 µM.

And the EC50 ([7]; Coxsackievirus, HeLa R19, read-out: EC50 CV-A24v strain 110389)?
Its EC50 is 18.6 ± 0.44 µM.

What about the EC50 ([7]; Coxsackievirus, HeLa R19, read-out: EC50 CV-A24v strain 110390) of the same compound?
Its EC50 is 16.8 ± 0.33 µM.

And the EC50 ([7]; Coxsackievirus, HeLa R19, read-out: EC50 CV-A24v strain 110392)?
The EC50 was 19.1 ± 0.97 µM.

And the EC50 ([7]; Coxsackievirus, HeLa R19, read-out: EC50 Exp1)?
Its EC50 is 17 µM.

What about the EC50 ([7]; Coxsackievirus, HeLa R19, read-out: EC50 Exp2) of the same compound?
The EC50 was 14.3 µM.

And the EC50 ([7]; read-out: EC50 Average)?
Its EC50 is 16.8 µM.

What about the EC50 ([7]; read-out: EC50 Exp1) of the same compound?
Its EC50 is 18.1 µM and 17.1 µM and 20 µM.

And the EC50 ([7]; read-out: EC50 Exp2)?
The EC50 was 19 µM and 16.4 µM and 18.1 µM.

What about the “inhibition of contemporary/clinical isolates of EV-A71, CV-A24v and EV-D68 (in words)” value [8] of the same compound?
Its value is “inhibited all clinical isolates of EV-A71, CV-A24v, and EV-D68 tested”.

And the “spectrum of antiviral activity (in words)” value [8]?
Its value is “inhibited all representative EVs and RVs”.

What about the “resistance of reverse-engineered EV-D68 2C T196S (in words)” value [9] of the same compound?
The value was “provided 19d resistance, although resistance was rather moderate”.

And the “resistance of reverse-engineered EV-D68 2C V96M (in words)” value [9]?
Its value is “provided 19d resistance, although resistance was rather moderate”.

And the “multicycle replication assay read-out, EV-D68 Fermon” value ([9]; 0.2344 µM)?
The value was 10 and 12.

And the “multicycle replication assay read-out, EV-D68 Fermon” value ([9]; 0.4688 µM)?
The value was 22 and 14 and 23.

And the “multicycle replication assay read-out, EV-D68 Fermon” value ([9]; 0.9375 µM)?
Its value is 10 and 16.5525.

What about the “multicycle replication assay read-out, EV-D68 Fermon” value ([9]; 1.875 µM) of the same compound?
The value was 102.405 and 111.906 and 97.379.

And the “multicycle replication assay read-out, EV-D68 Fermon” value ([9]; 3.75 µM)?
The value was 102.405 and 111.906 and 97.379.

And the “multicycle replication assay read-out, EV-D68 Fermon” value ([9]; 7.5 µM)?
Its value is 109.948 and 106.039 and 109.278.

What about the “multicycle replication assay read-out, EV-D68 Fermon” value ([9]; 15 µM) of the same compound?
Its value is 109.948 and 106.039 and 109.278.

And the “multicycle replication assay read-out, EV-D68 Fermon” value ([9]; 30 µM)?
Its value is 109.948 and 106.039 and 109.278.

What about the EC50 ([9]; EVD68, HeLa R19, […], read-out: EC50 Exp1) of the same compound?
The EC50 was 3.84 µM.

And the EC50 ([9]; EVD68, HeLa R19, read-out: EC50 EV-D68)?
The EC50 was 1.37 ± 0.02 µM.

What about the EC50 ([9]; EVD68, HeLa R19, read-out: EC50 EV-D68 strain 4310900947) of the same compound?
Its EC50 is 4.6 ± 0.37 µM.

What about the EC50 ([9]; EVD68, HeLa R19, read-out: EC50 EV-D68 strain 4310901348) of the same compound?
Its EC50 is 3.55 ± 0.43 µM.

What about the EC50 ([9]; EVD68, HeLa R19, read-out: EC50 EV-D68 strain 4310902042) of the same compound?
The EC50 was 3.53 ± 0.41 µM.

What about the EC50 ([9]; EVD68, HeLa R19, read-out: EC50 EV-D68 strain 4310902284) of the same compound?
The EC50 was 1.82 ± 0.57 µM.
